Structures are written as SMILES. Where a SMILES comes first, the peptide text is derived from it. [ ]: non-standard residue; d: D form. Phe(4-Br) = N[C@@H](Cc1ccc(Br)cc1)C(=O)O; Phe(4-Cl) = N[C@@H](Cc1ccc(Cl)cc1)C(=O)O; Phe(4-F) = N[C@@H](Cc1ccc(F)cc1)C(=O)O; Pen = CC(C)(S)[C@H](N)C(=O)O; hCys = N[C@@H](CCS)C(=O)O; Nle = CCCC[C@H](N)C(=O)O; Nva = CCC[C@H](N)C(=O)O; Abu = CC[C@H](N)C(=O)O

T2 sequence (Q99814 240-350 limits assumed): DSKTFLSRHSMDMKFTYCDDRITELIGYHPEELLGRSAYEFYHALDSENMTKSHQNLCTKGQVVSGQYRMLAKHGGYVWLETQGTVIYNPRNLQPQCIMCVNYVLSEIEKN

The target of the first assay is T1, HIF-1α PAS-B domain (Homo sapiens, UniProt Q16665).
T1 construct: made in house
T1 sequence (Q16665 238-349 limits assumed): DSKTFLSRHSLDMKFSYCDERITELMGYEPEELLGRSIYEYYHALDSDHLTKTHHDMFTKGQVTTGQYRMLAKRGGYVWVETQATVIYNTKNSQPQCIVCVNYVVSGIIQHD
Briefly: MST binding to the PAS-B domain of HIF-1α. The following applies: MST; mean ± SEM, n = 2 (n = 1 for most C1 analogues, n = 3 in Figure S2); read-out: KD for HIF-1α PAS-B. The method, then:
(§1) All reagents were purchased from Fisher Scientific or Sigma Aldrich UK unless specified otherwise.
(§2) Restriction enzymes and microbiology reagents were purchased from New England Biolabs Inc., Fisher Scientific (UK) or Promega (UK) and were used as directed by the manufacturer. Primers and oligonucleotides were synthesised by Integrated DNA Technologies (UK). DNA sequencing was carried out by Eurofins MWG Operon (Germany).
(§3) Construction of the RTHS and SICLOPPS library, screening, purification of recombinant HIF proteins, and the PLA was conducted as previously described in Miranda et al., J. Am. Chem. Soc., 2013, 135(28); […]
(§4) Protein labelling with MST dye
(§5) Protein was buffer exchanged from storage buffer into labelling buffer (0.1 M NaHCO3, pH 8.5) using a PD spintrap G-25 column (GE healthcare). The protein concentration was then adjusted to 20 µM.
(§6) The commercially sourced MST dye (NanoTemper) was prepared as a 470 µM solution in DMSO, which was then further diluted to 60 µM using labelling buffer. To the protein solution was added an equal volume of dye solution, and the labelling reaction was left for 1 hour in the dark at room temperature.
(§7) The labelled protein was separated from unreacted dye by elution through a PD minitrap G-25 column (GE healthcare). Labelled protein was then aliquoted and stored at -80 °C. Extent of labelling was measured by the absorbance obtained using the UV-vis mode on a NanoDrop ND-1000 Spectrophotometer (NanoDrop Technologies, USA).
(§8) Labelled protein was thawed on ice and diluted to 50 nM in assay buffer containing 50 mM Tris pH 8.0, 150 mM NaCl, 5% (v/v) glycerol, 1 mM TCEP and 0.05% TWEEN-20. The protein solution was then centrifuged at 12000 rpm for 15 minutes at 4 °C and left on ice. Compounds were prepared and serially diluted in DMSO at 10x assay concentration, before diluting to 2x assay concentration in assay buffer.
(§9) The 2x compound solutions were then mixed 1:1 (v/v) with 50 nM labelled protein solution and left to incubate for 1 hour at room temperature. Solutions were then loaded into Monolith NT.115 Premium Capillaries (NanoTemper) and placed in the sample tray. MST experiments were carried out
Consider `CC[C@H](C)[C@@H]1NC(=O)[C@H](CC(C)C)NC(=O)[C@H](CCCNC(=N)N)NC(=O)[C@H](C(C)(C)S)NC(=O)[C@H](Cc2ccccc2)NC(=O)[C@H]([C@@H](C)CC)NC1=O` [Pen, cyclo-PenRLIIF] (cyclo(F[Pen]RLII)), for which the Kd (in general, the concentration at which binding is half-saturated) turned out to be 5.7 ± 0.9 µM.

In the case of `CC[C@H](C)[C@@H]1NC(=O)[C@H](CC(C)C)NC(=O)[C@H](CCCNC(=N)N)NC(=O)[C@H](CS)NC(=O)[C@H](Cc2ccc(O)cc2)NC(=O)[C@H]([C@@H](C)CC)NC1=O` [OH, cyclo-CRLIIY] (cyclo(CRLIIY)), the Kd worked out at 7.4 ± 0.1 µM.

With `CC[C@H](C)[C@@H]1NC(=O)[C@H](CC(C)C)NC(=O)[C@H](CCCNC(=N)N)NC(=O)[C@H](CS)NC(=O)[C@H](Cc2ccc(F)cc2)NC(=O)[C@H]([C@@H](C)CC)NC1=O` [F, cyclo-CRLII(4-F)F] (cyclo(CRLII[Phe(4-F)])), the Kd was 1.7 ± 0.2 µM.

In the case of `CCCC[C@@H]1NC(=O)[C@H]([C@@H](C)CC)NC(=O)[C@H](CC(C)C)NC(=O)[C@H](CCCNC(=N)N)NC(=O)[C@H](CS)NC(=O)[C@H](Cc2ccccc2)NC1=O` [Nle, cyclo-CRLINleF] (cyclo(CRLI[Nle]F)), the Kd amounted to 7.5 ± 0.9 µM.

Regarding `CC[C@H](C)[C@@H]1NC(=O)[C@H](CC(C)C)NC(=O)[C@H](CCCNC(=N)N)NC(=O)[C@H](CCSC)NC(=O)[C@H](Cc2ccccc2)NC(=O)[C@H]([C@@H](C)CC)NC1=O` [M, cyclo-MRLIIF] (cyclo(FMRLII)), the Kd is above 100 µM.

On to `CC[C@H](C)[C@@H]1NC(=O)[C@H](CC(C)C)NC(=O)[C@H](CCCNC(=N)N)NC(=O)[C@H](CCS)NC(=O)[C@H](Cc2ccccc2)NC(=O)[C@H]([C@@H](C)CC)NC1=O` [hC, cyclo-hCRLIIF] (cyclo(F[hCys]RLII)), for which the Kd is above 50 µM.

Consider `CCC[C@@H]1NC(=O)[C@H]([C@@H](C)CC)NC(=O)[C@H](CC(C)C)NC(=O)[C@H](CCCNC(=N)N)NC(=O)[C@H](CS)NC(=O)[C@H](Cc2ccccc2)NC1=O` [Nva, cyclo-CRLINvaF] (cyclo(CRLI[Nva]F)), for which the Kd amounted to 22.1 ± 2.6 µM.

On to `CC[C@H](C)[C@@H]1NC(=O)[C@H](CC(C)C)NC(=O)[C@H](CCCNC(=N)N)NC(=O)[C@H](CSC)NC(=O)[C@H](Cc2ccccc2)NC(=O)[C@H]([C@@H](C)CC)NC1=O` [C(Me), cyclo-C(Me)RLIIF] (cyclo(C(Me)RLIIF)), for which the Kd was above 50 µM.

Regarding `CC[C@@H]1NC(=O)[C@H]([C@@H](C)CC)NC(=O)[C@H](CC(C)C)NC(=O)[C@H](CCCNC(=N)N)NC(=O)[C@H](CS)NC(=O)[C@H](Cc2ccccc2)NC1=O` [Abu, cyclo-CRLIAbuF] (cyclo([Abu]FCRLI)), the Kd worked out at 73.4 ± 4.8 µM.

In the case of `CC[C@H](C)[C@@H]1NC(=O)[C@H](CC(C)C)NC(=O)[C@H](CCCNC(=N)N)NC(=O)[C@H](CO)NC(=O)[C@H](Cc2ccccc2)NC(=O)[C@H]([C@@H](C)CC)NC1=O` [S, cyclo-SRLIIF] (cyclo(FSRLII)), the Kd was above 100 µM.

Regarding `CC[C@H](C)[C@@H]1NC(=O)[C@H](CC(C)C)NC(=O)[C@H](CCCNC(=N)N)NC(=O)[C@H](CS)NC(=O)[C@H](Cc2ccccc2)NC(=O)[C@H](CC(C)C)NC1=O` [L, cyclo-CRLILF] (cyclo(CRLILF)), the dissociation constant (Kd) amounted to 11.4 ± 0.4 µM.

For the compound `CC[C@H](C)[C@@H]1NC(=O)[C@H](CC(C)C)NC(=O)[C@H](CCCNC(=N)N)NC(=O)[C@H](CS)NC(=O)[C@H](Cc2ccc(Cl)cc2)NC(=O)[C@H]([C@@H](C)CC)NC1=O` [Cl, cyclo-CRLII(4-Cl)F] (cyclo(CRLII[Phe(4-Cl)])), the Kd is 1.2 ± 0.3 µM.

As to `CC[C@H](C)[C@@H]1NC(=O)[C@H](CC(C)C)NC(=O)[C@H](CCCNC(=N)N)NC(=O)[C@H](CS)NC(=O)[C@H](Cc2ccc(Br)cc2)NC(=O)[C@H]([C@@H](C)CC)NC1=O` [Br, cyclo-CRLII(4-Br)F] (cyclo(CRLII[Phe(4-Br)])), the Kd was 1 ± 0.2 µM.

Another assay addresses T2, HIF-2α PAS-B domain (Homo sapiens, UniProt Q99814).
T2 construct: made in house
Put plainly: MST binding to the PAS-B domain of HIF-2α. The following applies: MST; mean (n = 2) ± SEM. The method, then: as §1, §2, §3, §4, §5, §6, §7, §8, §9
Turning to `CC[C@H](C)[C@@H]1NC(=O)[C@H](CC(C)C)NC(=O)[C@H](CCCNC(=N)N)NC(=O)[C@H](CS)NC(=O)[C@H](Cc2ccccc2)NC(=O)[C@H]([C@@H](C)CC)NC1=O` [cyclo-CRLIIF] (cyclo(CRLIIF)), the Kd was determined as 10.9 ± 1.1 µM.

(Values after publication PMC10996005, “Identification and Development of Cyclic Peptide Inhibitors of Hypoxia Inducible Factors 1 and 2 That Disrupt Hypoxia-Response Signaling in Cancer Cells” (Journal of the American Chemical Society, 2024).)
